Data on 22 molecules can be found in patent US11285135B2 (AMGEN INC., priority 2016, dated 2022).

As a reminder, the IC50 is the point on the concentration scale where inhibition reaches its midpoint.

Assay [1] addresses GDP-bound protein (aa 1-169), containing both G12C and C118A amino acid substitutions (Homo sapiens, UniProt P01116, C118A/G12C). In words: Coupled Nucleotide Exchange Assay (SOS-mediated nucleotide exchange, AlphaScreen). The following applies: 2 hours compound pre-incubation. The assay is classed as biochemical. Summed up: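 His-tagged GDP-bound […] (aa 1-169, G12C/C118A) pre-incubated 2 h with compound titration in 25 mM HEPES pH 7.4, 10 mM MgCl2, 0.01% Triton X-100.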
A general note: Bead proximity is the source of the signal in Alpha formats.

Assay [2] deals with Phosphorylation of ERK½ in MIA PaCa-2 cells. Description: Phospho-ERK½ MSD Assay in MIA PaCa-2 cells. The assay is classed as cell-based. To be noted: Homo sapiens, MIA PaCa-2, MIA PaCa-2 cells; 4 hours compound treatment; 10 ng/mL EGF for 10 min; read-out: p-ERK IC50 (MIA PaCa-2). Summed up: (§1)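 MIA PaCa-2 or A549 cells (25,000/well, RPMI with 10% FBS) exposed to compound titration for 4 h at 37 °C, then stimulated with 10 ng/mL EGF for 10 min and lysed in RIPA. Phospho-ERK1/2 quantified by MSD whole-cell lysate immunoassay; IC50 from 4-parameter logistic fit.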

In assay [3] the test system is Phosphorylation of ERK½ in A549 cells. Description: Phospho-ERK½ MSD Assay in A549 cells. In kind it is cell-based. The following applies: Homo sapiens, A549, A549 cells; 4 hours compound treatment; 10 ng/mL EGF for 10 min; read-out: p-ERK IC50 (A549). Summed up:
as §1

Chain of GDP-bound protein (aa 1-169), containing both G12C and C118A amino acid substitutions (P01116 1-169 isoform P01116-2 G12C/C118A): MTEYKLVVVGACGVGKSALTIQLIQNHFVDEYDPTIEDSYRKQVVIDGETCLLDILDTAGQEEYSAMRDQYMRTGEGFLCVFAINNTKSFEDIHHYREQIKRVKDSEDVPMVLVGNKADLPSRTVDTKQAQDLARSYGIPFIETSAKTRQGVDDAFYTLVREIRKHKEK

In the case of `C=CC(=O)N1CCN(c2nc(=O)n(-c3c(CC)cccc3CC)c3nc(-n4nnc5ccccc54)c(Cl)cc23)[C@@H](C)C1` [Example 9-12, 7-(1H-benzotriazol-1-yl)-6-chloro-1-(2,6-diethylphenyl)-4-((2S)-2-methyl-4-(2-propenoyl)-1-piperazinyl)pyrido[2,3-d]pyrimidin-2(1H)-one], the “Coupled exchange IC50” value in assay [1] was 1.32 µM. In addition, the IC50 in assay [2] is 1.29 µM; in assay [3], above 100 µM.
The corresponding values for `C=CC(=O)N1CCN(c2nc(=O)n(-c3ccccc3C(C)C)c3cc(-c4cc(O)cc5ccccc45)c(Cl)cc23)CC1` [Example 9-13, 6-chloro-7-(3-hydroxy-1-naphthalenyl)-1-(2-(2-propanyl)phenyl)-4-(4-(2-propenoyl)-1-piperazinyl)-2(1H)-quinazolinone] are 0.306 µM, 0.078 µM and 12.8 µM.
The matching figures for `C=CC(=O)N1CCN(c2nnc(-c3ccccc3OC)c3cc(-c4c(O)cccc4F)c(Cl)cc23)CC1` [Example 10-2, 1-(4-(7-chloro-6-(2-fluoro-6-hydroxyphenyl)-4-(2-methoxyphenyl)phthalazin-1-yl)piperazin-1-yl)prop-2-en-1-one]: 1.93 µM, 36.1 µM and above 100 µM.
The matching figures for `C=CC(=O)N1CCN(c2nnc(-c3cc(Cl)ccc3C)c3cc(-c4c(O)cccc4F)c(Cl)cc23)CC1` [Example 10-3, 1-(4-(7-chloro-4-(5-chloro-2-methylphenyl)-6-(2-fluoro-6-hydroxyphenyl)-1-phthalazinyl)-1-piperazinyl)-2-propen-1-one]: 1.10 µM, 9.33 µM and above 100 µM.
As for `C=CC(=O)N1CCN(c2nnc(-c3ccccc3C(C)C)c3cc(-c4c(O)cccc4F)c(Cl)cc23)CC1` [Example 10-4, 1-(4-(7-chloro-6-(2-fluoro-6-hydroxyphenyl)-4-(2-(2-propanyl)phenyl)-1-phthalazinyl)-1-piperazinyl)-2-propen-1-one], the “Coupled exchange IC50” value in assay [1] amounted to 0.235 µM. The 50% inhibitory concentration (IC50) in assay [2] is 3.47 µM; in assay [3], above 100 µM.
The matching figures for `C=CC(=O)N1CCN(c2nnc(-c3ccccc3CC)c3cc(-c4c(O)cccc4F)c(Cl)cc23)CC1` [Example 10-5, 1-(4-(7-chloro-4-(2-ethylphenyl)-6-(2-fluoro-6-hydroxyphenyl)-1-phthalazinyl)-1-piperazinyl)-2-propen-1-one]: 0.297 µM, 3.41 µM and above 100 µM.
The corresponding values for `C=CC(=O)N1CCN(c2nnc(-c3cnccc3C)c3cc(-c4c(O)cccc4F)c(Cl)cc23)CC1` [Example 10-6, 1-(4-(7-chloro-6-(2-fluoro-6-hydroxyphenyl)-4-(4-methyl-3-pyridinyl)-1-phthalazinyl)-1-piperazinyl)-2-propen-1-one] are 1.20 µM, 6.07 µM and above 100 µM.
The corresponding values for `C=CC(=O)N1CCN(c2nnc(-c3c(C)cccc3C)c3cc(-c4c(O)cccc4F)c(Cl)cc23)CC1` [Example 10-7, 1-(4-(7-Chloro-4-(2,6-dimethylphenyl)-6-(2-fluoro-6-hydroxyphenyl)-1-phthalazinyl)-1-piperazinyl)-2-propen-1-one] are 0.533 µM, 9.2 µM and above 100 µM.
Consider `C=CC(=O)N1CCN(c2nnc(-c3cccnc3C)c3cc(-c4c(O)cccc4F)c(Cl)cc23)CC1` [Example 10-8], for which the “Coupled exchange IC50” value in assay [1] amounted to 1.34 µM. The IC50 in assay [2] was 12.9 µM; in assay [3] it was above 100 µM.
For `C=CC(=O)N1CCN(c2nnc(-c3cccc4[nH]ccc34)c3cc(-c4c(O)cccc4F)c(Cl)cc23)CC1` [Example 10-9, 1-(4-(7-chloro-6-(2-fluoro-6-hydroxyphenyl)-4-(1H-indol-4-yl)-1-phthalazinyl)-1-piperazinyl)-2-propen-1-one], the “Coupled exchange IC50” value in assay [1] amounted to 1.68 µM. For the same molecule, the results for the concentration for half-maximal inhibition (IC50) in assay [2] and in assay [3] were 33.6 µM and above 100 µM, respectively.
The corresponding values for `C=CC(=O)N1CCN(c2nnc(-c3ccccc3C3CC3)c3cc(-c4c(O)cccc4F)c(Cl)cc23)CC1` [Example 10-10, 1-(4-(7-chloro-4-(2-cyclopropylphenyl)-6-(2-fluoro-6-hydroxyphenyl)-1-phthalazinyl)-1-piperazinyl)-2-propen-1-one] are 0.359 µM, 6.85 µM and above 100 µM.
Consider `C=CC(=O)N1CCN(c2nnc(-c3ccccc3Cl)c3cc(-c4c(O)cccc4F)c(Cl)cc23)CC1` [Example 10-11, 1-(4-(7-chloro-4-(2-chlorophenyl)-6-(2-fluoro-6-hydroxyphenyl)-1-phthalazinyl)-1-piperazinyl)-2-propen-1-one], for which the “Coupled exchange IC50” value in assay [1] turned out to be 0.516 µM. Moreover, the IC50 in assay [2] is 14.7 µM; in assay [3], above 100 µM.
The matching figures for `C=CC(=O)N1CCN(c2nnc(-c3c(C)ccc4[nH]ncc34)c3cc(-c4c(O)cccc4F)c(Cl)cc23)CC1` [Example 10-12, 1-(4-(7-chloro-6-(2-fluoro-6-hydroxyphenyl)-4-(5-methyl-1H-indazol-4-yl)-1-phthalazinyl)-1-piperazinyl)-2-propen-1-one]: 0.912 µM, 72.6 µM and above 100 µM.
The matching figures for `C=CC(=O)N1CCN(c2nnc(C3CC3)c3cc(-c4c(O)cccc4F)c(Cl)cc23)CC1` [Example 12, 1-(4-(7-Chloro-4-cyclopropyl-6-(2-fluoro-6-hydroxyphenyl)-1-phthalazinyl)-1-piperazinyl)-2-propen-1-one]: 3.34 µM, 25.9 µM and above 100 µM.
The matching figures for `C=CC(=O)N1CCN(c2nnc(Nc3ccccc3)c3cc(-c4c(O)cccc4F)c(Cl)cc23)CC1` [Example 13, 1-(4-(4-Anilino-7-chloro-6-(2-fluoro-6-hydroxyphenyl)-1-phthalazinyl)-1-piperazinyl)-2-propen-1-one]: 5.20 µM, above 100 µM and above 100 µM.
For `C=CC(=O)N1CCN(c2nnc(Oc3ccccc3)c3cc(-c4c(O)cccc4F)c(Cl)cc23)CC1` [Example 16, 1-(4-(7-Chloro-6-(2-fluoro-6-hydroxyphenyl)-4-phenoxy-1-phthalazinyl)-1-piperazinyl)-2-propen-1-one], the “Coupled exchange IC50” value in assay [1] was 2.93 µM. The 50% inhibitory concentration (IC50) in assay [2] stood at 8.62 µM; in assay [3] it was 33.3 µM.
For `CN(C)C/C=C/C(=O)N1CCN(c2snc3c(F)c(-c4cc(O)cc5ccccc45)c(Cl)cc23)CC1` [Example 17-2, (2E)-1-(4-(5-chloro-7-fluoro-6-(3-hydroxy-1-naphthalenyl)-2,1-benzothiazol-3-yl)-1-piperazinyl)-4-(dimethylamino)-2-buten-1-one], in assay [1], the “Coupled exchange IC50” value was 1.02 µM. The IC50 in assay [2] is 2.6 µM; in assay [3] it was 49.1 µM.
Turning to `C=C(CBr)C(=O)N1CCN(c2snc3c(F)c(-c4cc(O)cc5ccccc45)c(Cl)cc23)CC1` [Example 18-2, 2-(Bromomethyl)-1-(4-(5-chloro-7-fluoro-6-(3-hydroxy-1-naphthalenyl)-2,1-benzothiazol-3-yl)-1-piperazinyl)-2-propen-1-one], the “Coupled exchange IC50” value in assay [1] came to 0.760 µM. The IC50 in assay [2] and in assay [3] was above 100 µM throughout.
As to `C=CC(=O)N1CCN(c2snc3c(F)c(-c4cc(O)cc5cnn(C)c45)c(Cl)cc23)CC1` [Example 19-2, 1-(4-(5-chloro-7-fluoro-6-(5-hydroxy-1-methyl-1H-indazol-7-yl)-2,1-benzothiazol-3-yl)-1-piperazinyl)-2-propen-1-one], in assay [1], the “Coupled exchange IC50” value amounted to 1.62 µM. The half-maximal inhibitory concentration (IC50) in assay [2] was found to be 4.69 µM; in assay [3], 3.7 µM.
The matching figures for `C=CC(=O)N1CCN(c2snc3c(F)c(-c4cc(O)cc5ccccc45)c(Cl)cc23)C(C(=O)O)C1` (stereo not drawn) [Example 22, 1-(5-chloro-7-fluoro-6-(3-hydroxy-1-naphthalenyl)-2,1-benzothiazol-3-yl)-4-(2-propenoyl)-2-piperazinecarboxylic acid]: 0.927 µM, 56.1 µM and above 100 µM.
The corresponding values for `C=CC(=O)N1CCN(c2snc3c(F)c(-c4c(C5CC5)ccc5[nH]ncc45)c(Cl)cc23)CC1` [Example 23, 1-(4-(5-chloro-6-(5-cyclopropyl-1H-indazol-4-yl)-7-fluoro-2,1-benzothiazol-3-yl)-1-piperazinyl)-2-propen-1-one] are 3.29 µM, 3.21 µM and above 33.3 µM.
As to `C=CC(=O)N1CCN(c2snc3c(F)c(-c4nc(N)cc5ccccc45)c(Cl)cc23)CC1` [Example 25, 1-(4-(6-(3-Amino-1-isoquinolinyl)-5-chloro-7-fluoro-2,1-benzothiazol-3-yl)-1-piperazinyl)-2-propen-1-one], the “Coupled exchange IC50” value in assay [1] stood at 0.251 µM. Also, the results for the IC50 in assay [2] and in assay [3] were 0.786 µM and above 100 µM, respectively.
